Active and inactive are the calls of the source. The rule behind the calls is not given here.
How the values were obtained:
[1] = target: T1, Acetolactate synthase (Nicotiana tabacum) (UniProt C0L093); test: Inhibition of wild type Nicotiana tabacum (tobacco) GST-tagged acetolactate synthase expressed in Escherichia coli at 1 mM by modified Westerfeld method
T1 sequence (whole entry): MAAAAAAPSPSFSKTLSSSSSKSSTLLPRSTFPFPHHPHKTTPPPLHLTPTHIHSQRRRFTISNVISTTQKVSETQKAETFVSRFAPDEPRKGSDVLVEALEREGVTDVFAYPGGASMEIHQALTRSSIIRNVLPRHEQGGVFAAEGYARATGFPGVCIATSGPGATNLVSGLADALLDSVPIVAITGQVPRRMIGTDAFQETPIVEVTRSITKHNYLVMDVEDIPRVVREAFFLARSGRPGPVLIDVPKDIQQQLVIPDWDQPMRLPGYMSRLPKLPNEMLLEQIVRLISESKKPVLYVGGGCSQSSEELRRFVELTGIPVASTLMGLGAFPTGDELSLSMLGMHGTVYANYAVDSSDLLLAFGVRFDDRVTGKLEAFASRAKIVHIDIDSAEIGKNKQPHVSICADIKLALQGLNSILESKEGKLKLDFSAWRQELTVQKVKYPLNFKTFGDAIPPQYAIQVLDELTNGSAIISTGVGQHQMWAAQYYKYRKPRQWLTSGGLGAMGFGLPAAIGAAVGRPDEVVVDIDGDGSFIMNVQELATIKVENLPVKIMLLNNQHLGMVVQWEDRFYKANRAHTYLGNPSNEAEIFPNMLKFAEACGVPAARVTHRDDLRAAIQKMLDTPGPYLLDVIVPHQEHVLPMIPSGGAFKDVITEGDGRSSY

[2] = target: T2, Acetolactate synthase (Nicotiana tabacum, UniProt C0L093); test: Inhibition of wild type Nicotiana tabacum (tobacco) GST-tagged acetolactate synthase expressed in Escherichia coli by modified Westerfeld method
T2 sequence (C0L093 whole entry): T1 sequence (whole entry)

[3] = target: Acetolactate synthase (Nicotiana tabacum, UniProt C0L093); test: Inhibition of wild type Nicotiana tabacum (tobacco) S4-Hra GST-tagged acetolactate synthase mutant expressed in Escherichia coli by modified Westerfeld method

`Cc1cc(C)n2nc(S(=O)(=O)Nc3cccc4ncccc34)nc2n1` was tested, and the inhibition [1] was “inactive”.

`Cc1ccn2nc(S(=O)(=O)Nc3cccc4ncccc34)nc2n1` was tested, and the inhibition [1] was “inactive”.

Work on `Cc1cc(C)n2nc(S(=O)(=O)Nc3cccc4cccnc34)nc2n1` yielded an IC50 [2] of 32.3 nM.

For `Cc1cc(C)n2nc(S(=O)(=O)Nc3cccc4cnccc34)nc2n1`, the inhibition [1] was “inactive”.

`Cc1ccn2nc(S(=O)(=O)Nc3c(C#N)ccc4cccnc34)nc2n1` gave an IC50 [2] of 64 nM.

For `Cc1cc(C)n2nc(S(=O)(=O)Nc3c(F)ccc4cccnc34)nc2n1`, the IC50 [3] was 14700 nM and the IC50 [2] was 7.7 nM.

Compound `Cc1cc(C)n2nc(S(=O)(=O)Nc3c(Br)ccc4cccnc34)nc2n1` has an IC50 [2] of 8.7 nM.

For `Cc1ccn2nc(S(=O)(=O)Nc3cccc4cnccc34)nc2n1`, the inhibition [1] was “inactive”.

With `Cc1ccn2nc(S(=O)(=O)Nc3c(F)ccc4cccnc34)nc2n1` the IC50 [3] was 16500 nM and the IC50 [2] was 17.1 nM.

In the case of `Cc1cc(C)n2nc(S(=O)(=O)Nc3c(Cl)ccc4cccnc34)nc2n1`, the IC50 [2] is reported as 9.4 nM.

`Cc1ccn2nc(S(=O)(=O)Nc3c(F)cccc3F)nc2n1` [FLUMETSULAM] was tested, and the IC50 [3] was 939 nM and the IC50 [2] was 31.6 nM.

For `Cc1cc(C)n2nc(S(=O)(=O)Nc3nccc4ccccc34)nc2n1`, the inhibition [1] was “inactive”.

With `Cc1ccn2nc(S(=O)(=O)Nc3c(Cl)ccc4cccnc34)nc2n1` the IC50 [2] was 37.2 nM.

With `Cc1ccn2nc(S(=O)(=O)Nc3nccc4ccccc34)nc2n1` the inhibition [1] was “inactive”.

`Cc1ccn2nc(S(=O)(=O)Nc3c(Br)ccc4cccnc34)nc2n1` was tested, and the IC50 [2] was 19.2 nM.
